This note sets out measurements from US8349886B2, “Nitrogenated 5-membered heterocyclic compound” (Takeda Pharmaceutical Company Limited, priority 2008, dated 2013).

Molecules are shown by their SMILES.

Usually Emax stands for the size of the effect at its maximum, as opposed to the concentration needed.

For this test, the target named is T1, GST-hLGK1 (human liver type GK) (Homo sapiens, UniProt P35557).
T1 construct: made in house; host or cells: Escherichia coli BL21 (Stratagene), plasmid pGEX6P-2/hLGK1
T1 sequence (P35557 1-464 isoform P35557-3): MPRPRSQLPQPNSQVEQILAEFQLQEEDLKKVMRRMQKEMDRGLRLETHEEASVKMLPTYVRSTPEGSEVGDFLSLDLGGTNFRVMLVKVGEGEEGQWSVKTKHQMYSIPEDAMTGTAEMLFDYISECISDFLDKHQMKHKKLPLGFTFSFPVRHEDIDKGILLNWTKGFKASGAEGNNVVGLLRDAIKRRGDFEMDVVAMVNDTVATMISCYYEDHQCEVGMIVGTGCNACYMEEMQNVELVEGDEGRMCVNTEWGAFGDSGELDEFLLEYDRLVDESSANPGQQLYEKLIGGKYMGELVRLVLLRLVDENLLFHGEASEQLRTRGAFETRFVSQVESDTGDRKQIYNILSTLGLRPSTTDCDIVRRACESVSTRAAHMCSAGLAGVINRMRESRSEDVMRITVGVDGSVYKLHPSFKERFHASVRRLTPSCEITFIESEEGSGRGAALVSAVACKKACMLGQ
Kind of test: Measurement of GK activation value (Mant-ATP/Mant-ADP capillary electrophoresis). It counts as biochemical. The note with it: test compound 10 μmol/L; 5 mmol/L D-glucose; reaction rate as percentage of control group without test compound. The method, then:
A plasmid DNA used for expression of a protein (GST-hLGK1) having GST (Glutathione S-transferase) added to the amino terminal of human liver type GK in Escherichia coli was prepared as follows.
BL21 strain (Stratagene) transformed with pGEX6P-2/hLGK1 obtained in Reference Example 1A was cultured with shaking in a 200 ml Erlenmeyer flask containing LB medium (50 ml) containing 100 μg/ml ampicillin at 37° C. for 14 hr. The cultured broth (25 ml) was diluted with LB medium (225 ml) containing 100 μg/ml ampicillin, and cultured with shaking in a 1 L Erlenmeyer flask at 37° C. for 1 hr. The Erlenmeyer flask after culture was cooled on ice, 100 mM Isopropyl-Thio-β-D-Galactopyranoside (IPTG) (125 μL) was added (final concentration 50 μM), and the cells were cultured at 17° C. for 20 hr. The cultures broth was centrifuged, and the obtained cells were disrupted by ultrasonication, and the object protein (GST-hLGK1) was purified from the supernatant using Glutathione Sepharose 4B (Amersham Biosciences).
GK enzyme reactions were performed in 50 mmol/L HEPES pH7.4, 200 mmol/L KCl, 5 mmol/L MgCl2, 2 mmol/L DTT, containing 50 μmol/L 2′-(or-3′)-O—(N-methylanthraniloyl)adenosine 5′-triphosphate (Mant-ATP) (Jena Bioscience GmbH), 5 mmol/L D-glucose, 5% DMSO and 6 μg/mL GST-hLGK1 obtained in Reference Example 2A in a total volume 50 μL. The reactions were performed in 384 well black plates (Nalge Nunc International K.K.). Prior to the reaction, the enzyme and test compound were incubated for 10 min at 37° C., and 25 mM D-glucose solution (10 μL) was added to start the reaction. The final concentration of the test compound is 10 μmol/L. After the incubation for 60 min at 37° C., the reaction was quenched by adding 25 μL of a quenching solution (containing 200 mM HEPES (pH 7.4), 20 mM MgCl2, 200 mM EDTA, 0.03% Triton-X 100, 0.3% Coating 3 reagent (Caliper Life Sciences, Inc.)).
Mant-ATP (substrate, 2′-(or-3′)-O—(N-methylanthraniloyl)adenosine 5′-triphosphate) and Mant-ADP (reaction resultant product) were separated from each well after the reaction by a microchip type capillary electrophoresis apparatus 250 HTS (Caliper Life Sciences, Inc.). The reaction rate [(reaction resultant product peak height)/(reaction resultant product peak height+substrate peak height)×100(%)] was calculated from the ratio of the substrate peak height and reaction resultant product peak height obtained by fluorescence detection (excitation wavelength 355 nm, measurement wavelength 460 nm) and used as the index of GK activity.
As a control group, the reaction rate was calculated in the same manner as above without the test compounds. […]
Compound `Cn1nc(C(CC2CCOCC2)c2ccc(-c3ncc(CO)s3)[nH]2)cc1S(C)(=O)=O` (stereo not shown) [Example 2, [2-(5-{1-[1-methyl-5-(methylsulfonyl)-1H-pyrazol-3-yl]-2-(tetrahydro-2H-pyran-4-yl)ethyl}-1H-pyrrol-2-yl)-1,3-thiazol-5-yl]methanol] showed a maximal response (Emax) at 10 µM of 138%.

`COc1ccc2c(cnn2C(CC2CCOCC2)c2ccc(-c3ccc(C(O)C(C)(C)O)cn3)[nH]2)c1S(=O)(=O)C1CC1` (stereo not shown) [Example 5, 1-[6-(5-{1-[4-(cyclopropylsulfonyl)-5-methoxy-1H-indazol-1-yl]-2-(tetrahydro-2H-pyran-4-yl)ethyl}-1H-pyrrol-2-yl)pyridin-3-yl]-2-methylpropane-1,2-diol] gave an Emax at 10 µM of 162%.

For `CC(C)(O)C(O)c1ccc(-c2ccc(C(CC3CCOCC3)n3ncc4c(S(=O)(=O)C5CC5)cccc43)[nH]2)nc1` (stereo not shown) [Example 4, 1-[6-(5-{1-[4-(cyclopropylsulfonyl)-1H-indazol-1-yl]-2-(tetrahydro-2H-pyran-4-yl)ethyl}-1H-pyrrol-2-yl)pyridin-3-yl]-2-methylpropane-1,2-diol], the maximal effect (Emax) at 10 µM was 161%.

Compound `COc1ccnc2c1cnn2C(CC1CCOCC1)c1ccc(-c2ccc(C(O)C(C)(C)O)cn2)[nH]1` (stereo not shown) [Example 3, 1-(6-{5-[1-(4-methoxy-1H-pyrazolo[3,4-b]pyridin-1-yl)-2-(tetrahydro-2H-pyran-4-yl)ethyl]-1H-pyrrol-2-yl}pyridin-3-yl)-2-methylpropane-1,2-diol] had a maximum response (Emax) at 10 µM of 124%.
